From patent US20240336629A1, “Tricyclic Derivatives Useful As PARP7 Inhibitors” (JACOBIO PHARMACEUTICALS CO., LTD., priority 2021, published 2024)
Read-outs that look alike come from different tables or passages of the source.

What was measured:
PARP7 enzyme = PARP7 enzyme (Homo sapiens (Human), UniProt Q7Z3E1); experiment: PARP7 enzymatic experiment (HTRF assay); format: biochemical; conditions: 4PL fit
[1] = system: lung cancer cell line H1373 (high expression of PARP7); experiment: Lung cancer cell proliferation inhibition experiment (CTG method); format: cell-based; conditions: H1373 cells, 144 hrs incubation, Cell Titer Glo
[2] = Mouse pharmacokinetic study; format: in vivo; conditions: Balb/c mouse; for clearance / Vd: iv; for Vd: read-out: Vss; for bioavailability: read-out: Oral BA (F %)
[3] = plasma, po, 100 mg/kg p.o. vs 3 mg/kg i.v.
[4] = plasma, po, single 100 mg/kg, p.o., read-out: Cmax

Chain of PARP7 enzyme (Q7Z3E1 456-657): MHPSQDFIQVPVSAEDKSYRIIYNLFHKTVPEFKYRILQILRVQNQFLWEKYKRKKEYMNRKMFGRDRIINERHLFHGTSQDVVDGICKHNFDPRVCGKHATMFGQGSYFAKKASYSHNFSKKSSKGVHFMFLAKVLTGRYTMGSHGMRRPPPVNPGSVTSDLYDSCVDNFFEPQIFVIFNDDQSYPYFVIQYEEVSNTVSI

SMILES	IC50 (PARP7 enzyme) [µM]	IC50 ([1]; Homo sapiens, NCI-H1373, 144 h) [µM]	clearance ([2]; plasma, single 3 mg/kg) [mL/min/kg]	Vd ([2]; plasma, single 3 mg/kg, i.v.) [L/kg]	bioavailability [2, 3] [%]	AUC(0-t) ([2]; plasma, po, single 100 mg/kg) [ng·h/mL]	Cmax [2, 4] [ng/mL]	IC50 [1] [µM]	pharmacokinetic properties (in words) [2]	bioavailability ([2]; plasma, oral, 100 mg/kg p.o. vs 3 mg/kg i.v.) [%]	Oral BA (F %) ([2]; 100 mg/kg p.o. vs 3 mg/kg i.v.) [%]	CL ([2]; single 3 mg/kg, i.v.) [mL/min/kg]	Vss ([2]; single 3 mg/kg, i.v.) [L/kg]	AUClast ([2]; single 100 mg/kg, p.o.) [ng·h/mL]	Cmax ([2]; single 100 mg/kg, p.o.) [ng/mL]
C[C@H](COCCC(=O)N1CCN2c3ncc(Cl)cc3N(C)C(=O)[C@@H]2C1)Nc1cn[nH]c(=O)c1C(F)(F)F [Compound 82A]	0.000744	0.0475	32	0.4	48	26400	21700								
C[C@@H](COCCC(=O)N1CCN2c3ncc(C(F)(F)F)cc3SCC[C@@H]2C1)Nc1cn[nH]c(=O)c1C(F)(F)F (single isomer, unassigned) [Compound 71A]	0.00153							0.0139	good pharmacokinetic properties						
C[C@@H](COCCC(=O)N1CCN2c3ncc(C(F)(F)F)cc3SCC[C@@H]2C1)Oc1cn[nH]c(=O)c1C(F)(F)F [Compound 86A]	0.0025	0.0119	54	1.4	66	20300	7860								
C[C@@H](COCCC(=O)N1CCn2c(cc3cc(C(F)(F)F)cnc32)C1)Oc1cn[nH]c(=O)c1C(F)(F)F [Compound 47A]		0.0609	16	0.5		95200	41100			90					
CCN1c2ncc(Cl)cc2OCC[C@@H]1CNC(=O)CCOC[C@@H](C)Oc1cn[nH]c(=O)c1C(F)(F)F (single isomer, unassigned) [Compound 84A]	0.00101							0.0215			106	41	0.5	43382	15033
C[C@@H](COCCC(=O)N1CCN2c3ncc(Cl)cc3N(C)C(=O)[C@@H]2C1)Nc1cn[nH]c(=O)c1C(F)(F)F (single isomer, unassigned) [Compound 20A]	0.00151	0.0539							good pharmacokinetic properties						
